Assay results from patent publication US9708314B2, “Heterocyclic amide compound” (NISSAN CHEMICAL INDUSTRIES, LTD., priority 2013, dated 2017).

Key:
Assay type in all cases: in vivo
[1] = system: Stellaria media; assay: Test Example 4: herbicidal effect by application to foliage (diluvial soil, plastic box); conditions: foliage application, 320 g/ha
Summary of the method: (§1)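 Read-out is a 0–5 visual grade of herbicidal ratio (5: ≥90%, almost withered; 0: ≤5%) taken three weeks after treatment. Compound was applied as a diluted emulsion to stem and leaf parts of 14-day greenhouse-grown plants (25° C. to 30° C.) at rates expressed as g/ha.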

[2] = system: Digitaria ciliaris; assay: as above; conditions: foliage application, 320 g/ha
Summary of the method: as §1

[3] = system: Veronica persica; assay: as above; conditions: foliage application, 320 g/ha
Summary of the method: as §1

[4] = system: Alopecurus myosuroides; assay: as above; conditions: foliage application, 320 g/ha
Summary of the method: as §1

[5] = system: Setaria viridis; assay: as above; conditions: foliage application, 320 g/ha
Summary of the method: as §1

[6] = system: Galium spurium; assay: as above; conditions: foliage application, 320 g/ha
Summary of the method: as §1

[7] = system: Cyperus difformis; assay: Test Example 3: herbicidal effect by application to foliage (Wagner pot, water depth 0.1-0.5 cm); conditions: Nineteenth Table; application to foliage; application herbicide amount 320 g/ha
Summary of the method: (§2)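 Wagner pot foliar test: sow, grow 14 d (25–30 °C), spray diluted emulsion at set g/ha, score after 3 wk; 0 ≤5%, 5 ≥90% herbicidal ratio.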

[8] = system: Echinochloa crus-galli var. crus-galli; assay: as above; conditions: Nineteenth Table; application to foliage; application herbicide amount 320 g/ha
Summary of the method: as §2

[9] = system: Leptochloa chinensis; assay: as above; conditions: Nineteenth Table; application to foliage; application herbicide amount 320 g/ha
Summary of the method: as §2

Row | SMILES | P (Stellaria media) herbicidal effect grade [1] | F (Digitaria ciliaris) herbicidal effect grade [2] | R (Veronica persica) herbicidal effect grade [3] | J (Alopecurus myosuroides) herbicidal effect grade [4] | G (Setaria viridis) herbicidal effect grade [5] | Q (Galium spurium) herbicidal effect grade [6] | E (herbicidal effect grade) [7] | H (herbicidal effect grade) [8] | D (herbicidal effect grade) [9]
1 | Cn1nnnc1NC(=O)c1ccc(C(F)(F)F)n2c([S+](C)[O-])nnc12 (stereo not drawn) [2-067] | 5 (Herbicidal ratio of 90% or more (almost completely withered)) | 5 (Herbicidal ratio of 90% or more (almost completely withered)) | 5 (Herbicidal ratio of 90% or more (almost completely withered)) | 4 (Herbicidal ratio of 70% or more and less than 90%) | 5 (Herbicidal ratio of 90% or more (almost completely withered)) | 4 (Herbicidal ratio of 70% or more and less than 90%) | 5 (Herbicidal ratio of 90% or more (almost completely withered)) | 5 (Herbicidal ratio of 90% or more (almost completely withered)) | 5 (Herbicidal ratio of 90% or more (almost completely withered))
2 | CCCSc1nnc2c(C(=O)Nc3nnnn3C)ccc(C(F)(F)F)n12 [2-068] | 5 (Herbicidal ratio of 90% or more (almost completely withered)) | 5 (Herbicidal ratio of 90% or more (almost completely withered)) | 5 (Herbicidal ratio of 90% or more (almost completely withered)) | 2 (Herbicidal ratio of 20% or more and less than 40%) | 5 (Herbicidal ratio of 90% or more (almost completely withered)) | 4 (Herbicidal ratio of 70% or more and less than 90%) | 5 (Herbicidal ratio of 90% or more (almost completely withered)) | 5 (Herbicidal ratio of 90% or more (almost completely withered)) | 5 (Herbicidal ratio of 90% or more (almost completely withered))
3 | CCC[S+]([O-])c1nnc2c(C(=O)Nc3nnnn3C)ccc(C(F)(F)F)n12 (stereo not drawn) [2-069] | 5 (Herbicidal ratio of 90% or more (almost completely withered)) | 5 (Herbicidal ratio of 90% or more (almost completely withered)) | 5 (Herbicidal ratio of 90% or more (almost completely withered)) | 3 (Herbicidal ratio of 40% or more and less than 70%) | 5 (Herbicidal ratio of 90% or more (almost completely withered)) | 4 (Herbicidal ratio of 70% or more and less than 90%) | 5 (Herbicidal ratio of 90% or more (almost completely withered)) | 5 (Herbicidal ratio of 90% or more (almost completely withered)) | 5 (Herbicidal ratio of 90% or more (almost completely withered))
4 | CCCS(=O)(=O)c1nnc2c(C(=O)Nc3nnnn3C)ccc(C(F)(F)F)n12 [2-070] | 5 (Herbicidal ratio of 90% or more (almost completely withered)) | 5 (Herbicidal ratio of 90% or more (almost completely withered)) | 5 (Herbicidal ratio of 90% or more (almost completely withered)) | 4 (Herbicidal ratio of 70% or more and less than 90%) | 5 (Herbicidal ratio of 90% or more (almost completely withered)) | 4 (Herbicidal ratio of 70% or more and less than 90%) | 5 (Herbicidal ratio of 90% or more (almost completely withered)) | 5 (Herbicidal ratio of 90% or more (almost completely withered)) | 5 (Herbicidal ratio of 90% or more (almost completely withered))
